Experimental data: ChEMBL document CHEMBL3885861, “Open TG-GATES”

Species: Rattus norvegicus
Assay: Open TG-GATES - Regimen: Daily Repeat
Type: toxicity, organism-based, Sprague-Dawley
Parameters: regimen Daily Repeat, gender Male, age 6 weeks
Details: in vivo, po, 0 mg/kg, route gavage, dose level Control; for APTT / Bas / Eos / Fbg / Hb / Ht / Lym / MCH / MCHC / MCV / Mono / Neu / PT / Plat / RBC / Ret / WBC: tissue Blood; for KIDNEY_L / KIDNEY_R / KIDNEY_TOTAL: tissue Kidney; for LIVER: tissue Liver; for ALP / ALT / AST / BUN / CRE / Ca / DBIL / GLC / IP / K / LDH / Na / PL / RALB / TBIL / TC / TG / TP / gamma-GTP: tissue Plasma

CSc1ccc2c(c1)N(CCC1CCCCN1C)c1ccccc1S2 (stereo not drawn) [THIORIDAZINE]
TERMINAL_BW (72 h, time 3 day): 237.9 g
APTT (72 h, time 3 day): 16.6 s
Bas (72 h, time 3 day): 0%
Eos (72 h, time 3 day): 1%
Fbg (72 h, time 3 day): 215.2 mg/dL
Hb (72 h, time 3 day): 13.7 g/dL
Ht (72 h, time 3 day): 40.7%
Lym (72 h, time 3 day): 78%
MCH (72 h, time 3 day): 21.7 pg
MCHC (72 h, time 3 day): 33.7%
MCV (72 h, time 3 day): 64.4 fL
Mono (72 h, time 3 day): 8.4%
Neu (72 h, time 3 day): 13%
PT (72 h, time 3 day): 11.9 s
Plat (72 h, time 3 day): 107.7 x10_4/uL
RBC (72 h, time 3 day): 631.6 x10_4/ul
Ret (72 h, time 3 day): 8.1%
WBC (72 h, time 3 day): 120 x10_2/uL
KIDNEY_L (72 h, time 3 day): 1.1 g
KIDNEY_R (72 h, time 3 day): 1.1 g
KIDNEY_TOTAL (72 h, time 3 day): 2.2 g
LIVER (72 h, time 3 day): 12 g
ALP (72 h, time 3 day): 821.6 IU/L
ALT (72 h, time 3 day): 37 IU/L
AST (72 h, time 3 day): 63.8 IU/L
BUN (72 h, time 3 day): 16.6 mg/dL
CRE (72 h, time 3 day): 0.5 mg/dL
Ca (72 h, time 3 day): 11.1 mg/dL
DBIL (72 h, time 3 day): 0.034 mg/dL
GLC (72 h, time 3 day): 193.4 mg/dL
IP (72 h, time 3 day): 9.3 mg/dL
K (72 h, time 3 day): 5.2 meq/L
LDH (72 h, time 3 day): 95 IU/L
Na (72 h, time 3 day): 139.4 meq/L
PL (72 h, time 3 day): 159.6 mg/dL
RALB (72 h, time 3 day): 4.2 g/dL
TBIL (72 h, time 3 day): 0.4 mg/dL
TC (72 h, time 3 day): 87 mg/dL
TG (72 h, time 3 day): 88.2 mg/dL
TP (72 h, time 3 day): 6 g/dL
gamma-GTP (72 h, time 3 day): 1.2 IU/L
TERMINAL_BW ([…], time 7 day): 272.6 g
TERMINAL_BW ([…], time 14 day): 326.5 g
TERMINAL_BW ([…], time 28 day): 411.3 g
APTT ([…], time 7 day): 15.1 s
Bas ([…], time 7 day): 0%
Eos ([…], time 7 day): 0.6%
Fbg ([…], time 7 day): 241.2 mg/dL
Hb ([…], time 7 day): 13.9 g/dL
Ht ([…], time 7 day): 41.7%
Lym ([…], time 7 day): 83%
MCH ([…], time 7 day): 21.7 pg
MCHC ([…], time 7 day): 33.3%
MCV ([…], time 7 day): 65 fL
Mono ([…], time 7 day): 6.2%
Neu ([…], time 7 day): 10.2%
PT ([…], time 7 day): 11.6 s
Plat ([…], time 7 day): 100.8 x10_4/uL
RBC ([…], time 7 day): 642.4 x10_4/ul
Ret ([…], time 7 day): 5.4%
WBC ([…], time 7 day): 141.4 x10_2/uL
APTT ([…], time 14 day): 16.8 s
Bas ([…], time 14 day): 0%
Eos ([…], time 14 day): 0.6%
Fbg ([…], time 14 day): 243.4 mg/dL
Hb ([…], time 14 day): 14.4 g/dL
Ht ([…], time 14 day): 42.9%
Lym ([…], time 14 day): 78.4%
MCH ([…], time 14 day): 20.6 pg
MCHC ([…], time 14 day): 33.5%
MCV ([…], time 14 day): 61.5 fL
Mono ([…], time 14 day): 6.4%
Neu ([…], time 14 day): 14.6%
PT ([…], time 14 day): 11.5 s
Plat ([…], time 14 day): 106.3 x10_4/uL
RBC ([…], time 14 day): 697.6 x10_4/ul
Ret ([…], time 14 day): 4.5%
WBC ([…], time 14 day): 129.7 x10_2/uL
APTT ([…], time 28 day): 18.1 s
Bas ([…], time 28 day): 0%
Eos ([…], time 28 day): 0.6%
Fbg ([…], time 28 day): 234.6 mg/dL
Hb ([…], time 28 day): 15.2 g/dL
Ht ([…], time 28 day): 45.5%
Lym ([…], time 28 day): 83.4%
MCH ([…], time 28 day): 19.8 pg
MCHC ([…], time 28 day): 33.4%
MCV ([…], time 28 day): 59.2 fL
Mono ([…], time 28 day): 7.6%
Neu ([…], time 28 day): 8.2%
PT ([…], time 28 day): 11.8 s
Plat ([…], time 28 day): 98 x10_4/uL
RBC ([…], time 28 day): 769.4 x10_4/ul
Ret ([…], time 28 day): 3%
WBC ([…], time 28 day): 131.4 x10_2/uL
KIDNEY_L ([…], time 7 day): 1.2 g
KIDNEY_R ([…], time 7 day): 1.2 g
KIDNEY_TOTAL ([…], time 7 day): 2.4 g
KIDNEY_L ([…], time 14 day): 1.3 g
KIDNEY_R ([…], time 14 day): 1.3 g
KIDNEY_TOTAL ([…], time 14 day): 2.6 g
KIDNEY_L ([…], time 28 day): 1.5 g
KIDNEY_R ([…], time 28 day): 1.5 g
KIDNEY_TOTAL ([…], time 28 day): 2.9 g
LIVER ([…], time 7 day): 13.4 g
LIVER ([…], time 14 day): 15.6 g
LIVER ([…], time 28 day): 18.7 g
ALP ([…], time 7 day): 973 IU/L
ALT ([…], time 7 day): 32.4 IU/L
AST ([…], time 7 day): 65 IU/L
BUN ([…], time 7 day): 18.2 mg/dL
CRE ([…], time 7 day): 0.5 mg/dL
Ca ([…], time 7 day): 11.4 mg/dL
DBIL ([…], time 7 day): 0.016 mg/dL
GLC ([…], time 7 day): 181.2 mg/dL
IP ([…], time 7 day): 9 mg/dL
K ([…], time 7 day): 5.2 meq/L
LDH ([…], time 7 day): 149.4 IU/L
Na ([…], time 7 day): 141.6 meq/L
PL ([…], time 7 day): 175 mg/dL
RALB ([…], time 7 day): 4 g/dL
TBIL ([…], time 7 day): 0.3 mg/dL
TC ([…], time 7 day): 89.2 mg/dL
TG ([…], time 7 day): 140.8 mg/dL
TP ([…], time 7 day): 5.9 g/dL
gamma-GTP ([…], time 7 day): 1.4 IU/L
ALP ([…], time 14 day): 864.8 IU/L
ALT ([…], time 14 day): 33.4 IU/L
AST ([…], time 14 day): 57.2 IU/L
BUN ([…], time 14 day): 19 mg/dL
CRE ([…], time 14 day): 0.5 mg/dL
Ca ([…], time 14 day): 10.8 mg/dL
DBIL ([…], time 14 day): 0.014 mg/dL
GLC ([…], time 14 day): 189.8 mg/dL
IP ([…], time 14 day): 8 mg/dL
K ([…], time 14 day): 4.9 meq/L
LDH ([…], time 14 day): 96.8 IU/L
Na ([…], time 14 day): 139.8 meq/L
PL ([…], time 14 day): 163.6 mg/dL
RALB ([…], time 14 day): 4.1 g/dL
TBIL ([…], time 14 day): 0.3 mg/dL
TC ([…], time 14 day): 71.8 mg/dL
TG ([…], time 14 day): 200.4 mg/dL
TP ([…], time 14 day): 6.3 g/dL
gamma-GTP ([…], time 14 day): 0.8 IU/L
ALP ([…], time 28 day): 618.8 IU/L
ALT ([…], time 28 day): 34.6 IU/L
AST ([…], time 28 day): 62 IU/L
BUN ([…], time 28 day): 20.4 mg/dL
CRE ([…], time 28 day): 0.6 mg/dL
Ca ([…], time 28 day): 10.7 mg/dL
DBIL ([…], time 28 day): 0 mg/dL
GLC ([…], time 28 day): 191.4 mg/dL
IP ([…], time 28 day): 6.7 mg/dL
K ([…], time 28 day): 4.5 meq/L
LDH ([…], time 28 day): 135.2 IU/L
Na ([…], time 28 day): 139.4 meq/L
PL ([…], time 28 day): 170.8 mg/dL
RALB ([…], time 28 day): 4.1 g/dL
TBIL ([…], time 28 day): 0.3 mg/dL
TC ([…], time 28 day): 87.4 mg/dL
TG ([…], time 28 day): 186.2 mg/dL
TP ([…], time 28 day): 6.5 g/dL
